Experimental data as given in PMC5562523 (Cell chemical biology, 2017).

How the values were obtained:
[1] = tested on: CDC1551 (ΔphoPR); format: cell-based; conditions: acidic pH
[2] = tested on: CDC1551 katG::Tn mutant; format: cell-based, Mycobacterium tuberculosis; conditions: pH 5.7

## COc1ccc(NC(=O)c2nc(S(C)(=O)=O)ncc2Cl)cc1Cl [AC2P36, 5-chloro-N-(3-chloro-4-methoxyphenyl)-2-methylsulfonylpyrimidine-4-carboxamide]
[1]
  sensitivity of ΔphoPR mutant vs WT to AC2P36: no differences were observed between WT or ΔphoPR sensitivity to AC2P36
[2]
  sensitivity of WT, katG::Tn mutant and complemented strain to AC2P36: No difference was observed between the three strains
